Where two headings read alike, the source gives them in different places.
Key:
[1] = target: T1, ACE2 (Homo sapiens, UniProt Q9BYF1); assay: Bio-layer interferometry, binding to immobilized ACE2-His; details: for Kd: 1:1 binding model, KD = kdis/kon; for kon: read-out: ACE2 kon; for koff: read-out: ACE2 kdis
T1 construct: purchased Sino Biological

[2] = target: SARS-CoV-2 RBD peptide (Severe acute respiratory syndrome coronavirus 2, UniProt P0DTC2); assay: biochemical; assay type: binding; details: for koff: read-out: RBD kdis; for kon: read-out: RBD kon
[3] = target: binding of RBD to ACE2 (Severe acute respiratory syndrome coronavirus 2, UniProt P0DTC2); assay: biochemical; set-up: species or system SARS-CoV-2; human
[4] = association rate, bio-layer interferometry
[5] = dissociation rate, bio-layer interferometry

T1 sequence (Q9BYF1 18-805): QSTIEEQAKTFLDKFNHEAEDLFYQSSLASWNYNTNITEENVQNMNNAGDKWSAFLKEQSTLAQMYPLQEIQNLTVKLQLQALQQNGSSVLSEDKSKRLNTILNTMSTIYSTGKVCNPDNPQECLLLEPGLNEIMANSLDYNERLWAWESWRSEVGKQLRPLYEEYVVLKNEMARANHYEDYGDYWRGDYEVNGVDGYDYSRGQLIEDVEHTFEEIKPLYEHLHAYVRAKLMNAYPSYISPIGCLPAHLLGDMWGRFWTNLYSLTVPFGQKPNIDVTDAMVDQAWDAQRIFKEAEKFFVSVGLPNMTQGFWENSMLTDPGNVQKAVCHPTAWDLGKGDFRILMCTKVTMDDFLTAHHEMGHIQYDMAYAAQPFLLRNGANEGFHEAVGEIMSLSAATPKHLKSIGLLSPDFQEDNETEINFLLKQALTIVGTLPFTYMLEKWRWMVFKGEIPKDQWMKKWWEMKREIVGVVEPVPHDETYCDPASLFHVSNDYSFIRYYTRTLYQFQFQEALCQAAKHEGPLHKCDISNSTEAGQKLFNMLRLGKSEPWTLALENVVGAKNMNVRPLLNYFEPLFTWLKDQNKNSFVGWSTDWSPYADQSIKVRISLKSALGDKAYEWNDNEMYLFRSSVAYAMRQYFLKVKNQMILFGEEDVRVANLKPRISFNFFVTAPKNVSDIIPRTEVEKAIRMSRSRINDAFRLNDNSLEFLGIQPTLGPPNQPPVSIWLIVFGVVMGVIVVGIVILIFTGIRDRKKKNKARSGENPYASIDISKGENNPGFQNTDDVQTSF

SMILES: CN(C)c1ccc2nc3ccc(=[N+](C)C)cc-3sc2c1 [Methylene blue]
- Kd ([1]; bio-layer interferometry): 475 µM

SMILES: COc1cc(/C=C/C(=O)CC(=O)/C=C/c2ccc(O)c(OC)c2)ccc1O [Curcumin]
- interaction with the RBD (result in words) [2]: No interaction
- kon [1, 4]: 600 M⁻¹ s⁻¹
- Kd ([1]; bio-layer interferometry): 20.3 µM
- koff [1, 5]: 0.0122 s⁻¹

SMILES: C=C[C@H]1C[N@@]2CC[C@H]1C[C@H]2[C@H](O)c1ccnc2ccc(OC)cc12 [Quinine]
- interaction with the RBD (result in words) [2]: No interaction
- kon [1, 4]: 877 M⁻¹ s⁻¹
- Kd ([1]; bio-layer interferometry): 9.35 µM
- koff [1, 5]: 0.00819 s⁻¹

SMILES: OC(c1cc(C(F)(F)F)nc2c(C(F)(F)F)cccc12)C1CCCCN1 (stereo not shown) [Mefloquine]
- Kd ([2]; RBD KD (M)): 0.00605 M
- koff [2]: 0.861 s⁻¹
- kon [2]: 142 M⁻¹ s⁻¹
- koff [1]: 0.0312 s⁻¹
- kon [1]: 716 M⁻¹ s⁻¹

SMILES: C[C@H]1[C@H](OC(=O)CCC(=O)O)O[C@@H]2O[C@@]3(C)CC[C@H]4[C@H](C)CC[C@@H]1[C@@]24OO3 [Artesunate]
- interaction with the RBD (result in words) [2]: No interaction
- koff [1]: 0.0907 s⁻¹
- kon [1]: 1290 M⁻¹ s⁻¹

SMILES: COc1ccc2nc3cc(Cl)ccc3c(Nc3cc(CN4CCCC4)c(O)c(CN4CCCC4)c3)c2n1 [Pyronaridine]
- Kd ([2]; KD for RBD): 5.7e-05 M
- Kd ([2]; RBD KD (M)): 5.68e-05 M
- koff [2]: 0.0339 s⁻¹
- kon [2]: 598 M⁻¹ s⁻¹
- IC50 [3]: 49.7 ± 4.19 µM
- kon [1, 4]: 584 M⁻¹ s⁻¹
- Kd ([1]; bio-layer interferometry): 51.3 µM
- koff [1, 5]: 0.0299 s⁻¹

SMILES: C[C@H]1[C@H](N2CCS(=O)(=O)CC2)O[C@@H]2O[C@@]3(C)CC[C@H]4[C@H](C)CC[C@@H]1[C@@]24OO3 [Artemisone]
- Kd ([2]; KD for RBD): 3.6e-07 M
- Kd ([2]; RBD KD (M)): 3.63e-07 M
- kon [2]: 8.4e+07 M⁻¹ s⁻¹
- IC50 [3]: 63.1 ± 9.63 µM
- kon [1, 4]: 971 M⁻¹ s⁻¹
- Kd ([1]; bio-layer interferometry): 681 µM
- koff [1, 5]: 0.661 s⁻¹

SMILES: C[C@H]1[C@H](N2CCSCC2)O[C@@H]2O[C@@]3(C)CC[C@H]4[C@H](C)CC[C@@H]1[C@@]24OO3 [Artemiside]
- interaction with the RBD (result in words) [2]: No interaction
- kon [1, 4]: 4290 M⁻¹ s⁻¹
- Kd ([1]; bio-layer interferometry): 124 µM
- koff [1, 5]: 0.533 s⁻¹

SMILES: CCN(CC)Cc1cc(Nc2ccnc3cc(Cl)ccc23)ccc1O [Amodiaquine]
- Kd ([1]; bio-layer interferometry): 31.3 µM

Reference: publication PMC8537658 (Pharmaceuticals, 2021)
